Eight molecules from patent US20140329858A1, “Cyclic Urea Derivatives As Androgen Receptor Antagonists” (priority 2011, published 2014) can be followed below.

Usually IC50 stands for the midpoint of a concentration-inhibition curve.

The subject of the first test is Vcap cells. Put plainly: Dihydrotestosterone (DHT) mediated XTT cell proliferation assay for screening AR antagonists using Vcap cells. In kind it is cell-based. The settings on record: Homo sapiens, 240 h, in the presence of 0.2 nM DHT, XTT readout on Day 10, IC50 curves from 8 concentrations. An outline of the steps: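 VCaP cells, starved 5 days in phenol red-free DMEM with 8% charcoal-stripped serum, were plated and treated on Day 4 with compound (0.1 nM-30 μM, 8 concentrations) plus 0.2 nM DHT, redosed Day 7. On Day 10 viability was read by XTT at 465 nm; IC50 from sigmoidal dose-response fit.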
A general note: Tetrazolium assays rely on reduction of a dye to a coloured formazan, in cell work by metabolically active cells.
`Cc1cc(N2C(=O)N(c3ccc(C#N)c(C(F)(F)F)c3)[C@H]3CCCC[C@@H]32)ccc1C(N)=O` [Example 70, 4-((3aS,7aS)-3-(4-cyano-3-(trifluoromethyl)phenyl)-2-oxooctahydro-1H-benzo[d]imidazol-1-yl)-2-methylbenzamide]: the IC50 is 733 nM.
For `CN1C(=O)N(c2ccc(C#N)c(C(F)(F)F)c2)[C@@H]2CCC(c3ccccc3)C[C@H]21` (stereo partly drawn) [Example 90, Trans-4-(3-methyl-2-oxo-5-phenyloctahydro-1H-benzo[d]imidazol-1-yl)-2-(trifluoromethyl)benzonitrile], the IC50 was 372 nM.
Turning to `CNC(=O)c1ccc(N2C(=O)N(c3ccc(C#N)c(C(F)(F)F)c3)[C@@H]3CC=CC[C@H]32)cc1F` (racemic) [Example 83, Trans-4-(3-(4-cyano-3-(trifluoromethyl)phenyl)-2-oxo-2,3,3a,4,7,7a-hexahydro-1H-benzo[c]imidazol-1-yl)-2-fluoro-N-methylbenzamide (±)], the IC50 was 148 nM.
On to `N#Cc1ccc(N2C(=O)N(Cc3ccc(-n4cccn4)nc3)[C@@H]3CCCC[C@H]32)cc1C(F)(F)F` (racemic) [Example 50, Trans-4-(3-((6-(1H-pyrazol-1-yl)pyridin-3-yl)methyl)-2-oxooctahydro-1H-benzo[d]imidazol-1-yl)-2-(trifluoromethyl)benzonitrile (±)], for which the IC50 was > 10000 nM.
`N#Cc1ccc(N2C(=O)N(c3ccc(C(=O)N[C@@H]4CCOC4)c(F)c3)[C@@H]3CCCC[C@H]32)cc1C(F)(F)F` (mixture of isomers) [Example 34, 4-((3aR,7aR)-3-(4-cyano-3-(trifluoromethyl)phenyl)-2-oxooctahydro-1H-benzo[d]imidazol-1-yl)-2-fluoro-N—((R)-tetrahydrofuran-3-yl)benzamide and 4-((3aS,7aS)-3-(4-cyano-3-(trifluoromethyl)phenyl)-2-oxooctahydro-1H-benzo[d]imidazol-1-yl)-2-fluoro-N—((R)-tetrahydrofuran-3-yl)benzamide]: the IC50 came out at 317 nM.
Take `Cc1ccncc1N1C(=O)N(c2ccc(C#N)c(C(F)(F)F)c2)[C@H]2CCCC[C@@H]21` [Example 63, 4-((3aS,7aS)-3-(4-methylpyridin-3-yl)-2-oxooctahydro-1H-benzo[d]imidazol-1-yl)-2-(trifluoromethyl)benzonitrile]: the IC50 worked out at 2290 nM.

The test is the same for the next values; noted with them: in the presence of 0.2 nM DHT, XTT readout on Day 10, IC50 curves from 8 concentrations.
`CNC(=O)c1ccc(N2C(=O)N(c3ccc(C#N)c(C(F)(F)F)c3)[C@@H]3CCCCC[C@H]32)cc1F` (relative stereo) [Example 80a, Trans-4-(3-(4-cyano-3-(trifluoromethyl)phenyl)-2-oxooctahydrocyclohepta[d]imidazol-1(2H)-yl)-2-fluoro-N-methylbenzamide (−)]: the IC50 stood at 93.7 nM.
Same read-out and setting: with `CNC(=O)c1ccc(N2C(=O)N(c3ccc(C#N)c(C(F)(F)F)c3)[C@@H]3COCC[C@H]32)cc1F` (relative stereo) [Example 71b, Trans-4-{3-[4-Cyano-3-(trifluoromethyl)phenyl]-2-oxo-octahydropyrano[3,4-d]imidazolidin-1-yl}-2-fluoro-N-methylbenzamide (−)] the figure was 379 nM.
